From PubChem BioAssay AID602398 (The Scripps Research Institute Molecular Screening Center, 2012)
Activity calls are given as the source filed them. The rule behind the calls is not given here.

Target: Tyrosine-protein kinase ABL1 (Homo sapiens) + Ras and Rab interactor 1 (Homo sapiens) (UniProt P00519+Q13671)
Experiment: concentration response for Abl-Rin1 disruption – biochemical, TR-FRET, dose response, late-stage follow-up (AID 602398)
Conditions: TR-FRET Rin1-Abl binding

Tyrosine-protein kinase ABL1 (Homo sapiens) + Ras and Rab interactor 1 (Homo sapiens), sequence (P00519 whole entry, looked up): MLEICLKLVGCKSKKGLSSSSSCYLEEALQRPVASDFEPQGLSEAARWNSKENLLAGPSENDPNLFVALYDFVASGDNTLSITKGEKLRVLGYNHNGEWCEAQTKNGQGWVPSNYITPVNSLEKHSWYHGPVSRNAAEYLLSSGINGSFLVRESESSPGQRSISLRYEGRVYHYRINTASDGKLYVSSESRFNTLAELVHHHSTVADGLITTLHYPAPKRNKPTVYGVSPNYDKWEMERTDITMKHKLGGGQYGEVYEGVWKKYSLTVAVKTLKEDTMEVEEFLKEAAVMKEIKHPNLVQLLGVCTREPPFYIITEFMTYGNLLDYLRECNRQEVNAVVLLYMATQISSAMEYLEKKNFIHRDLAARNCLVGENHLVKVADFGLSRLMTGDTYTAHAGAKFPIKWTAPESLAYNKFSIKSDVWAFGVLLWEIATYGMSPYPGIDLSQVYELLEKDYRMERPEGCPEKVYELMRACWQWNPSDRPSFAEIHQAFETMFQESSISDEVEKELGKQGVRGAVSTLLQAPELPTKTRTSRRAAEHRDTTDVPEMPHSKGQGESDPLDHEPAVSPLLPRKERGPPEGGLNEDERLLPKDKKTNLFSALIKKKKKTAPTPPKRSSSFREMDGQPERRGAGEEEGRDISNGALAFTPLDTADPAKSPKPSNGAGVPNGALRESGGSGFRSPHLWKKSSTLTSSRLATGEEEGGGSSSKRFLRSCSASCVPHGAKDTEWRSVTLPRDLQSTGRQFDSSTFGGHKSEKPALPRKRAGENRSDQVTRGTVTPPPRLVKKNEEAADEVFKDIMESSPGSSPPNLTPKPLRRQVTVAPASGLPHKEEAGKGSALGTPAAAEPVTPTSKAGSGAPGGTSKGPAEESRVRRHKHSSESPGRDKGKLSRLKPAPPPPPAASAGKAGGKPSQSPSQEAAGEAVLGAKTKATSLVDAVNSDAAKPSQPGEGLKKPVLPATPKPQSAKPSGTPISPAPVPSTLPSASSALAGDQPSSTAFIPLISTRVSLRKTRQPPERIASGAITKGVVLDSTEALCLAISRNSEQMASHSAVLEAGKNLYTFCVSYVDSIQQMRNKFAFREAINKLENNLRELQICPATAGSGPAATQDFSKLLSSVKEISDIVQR
Tyrosine-protein kinase ABL1 (Homo sapiens) + Ras and Rab interactor 1 (Homo sapiens), sequence (Q13671 whole entry, looked up): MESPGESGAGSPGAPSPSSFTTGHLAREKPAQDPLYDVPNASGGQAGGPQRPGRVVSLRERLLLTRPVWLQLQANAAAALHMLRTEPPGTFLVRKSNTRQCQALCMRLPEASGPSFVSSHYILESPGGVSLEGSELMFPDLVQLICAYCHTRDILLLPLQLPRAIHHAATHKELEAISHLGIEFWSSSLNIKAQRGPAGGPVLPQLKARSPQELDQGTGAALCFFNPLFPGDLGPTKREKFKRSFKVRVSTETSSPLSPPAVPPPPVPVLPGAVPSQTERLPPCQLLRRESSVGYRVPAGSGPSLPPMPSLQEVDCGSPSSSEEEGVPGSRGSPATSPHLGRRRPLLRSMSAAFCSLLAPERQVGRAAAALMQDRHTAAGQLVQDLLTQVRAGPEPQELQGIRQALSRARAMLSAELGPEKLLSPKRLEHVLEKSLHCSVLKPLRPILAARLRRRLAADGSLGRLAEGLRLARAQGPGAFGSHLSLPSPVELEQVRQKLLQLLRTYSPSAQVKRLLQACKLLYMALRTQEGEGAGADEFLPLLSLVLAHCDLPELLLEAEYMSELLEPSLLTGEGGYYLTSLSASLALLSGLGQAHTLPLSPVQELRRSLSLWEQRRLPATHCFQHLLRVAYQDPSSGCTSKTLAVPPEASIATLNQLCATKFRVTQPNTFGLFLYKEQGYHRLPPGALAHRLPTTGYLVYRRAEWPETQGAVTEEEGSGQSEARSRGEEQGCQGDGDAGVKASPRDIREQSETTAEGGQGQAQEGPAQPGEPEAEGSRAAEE

SMILES	IC50
CN(Cc1c(F)cccc1Cl)C(=O)CNC(=O)c1ccc2c(c1)OCO2	3.77 µM
Cn1c(=O)c2c(nc(-n3ccnc3)n2Cc2ccc(Cl)cc2Cl)n(C)c1=O	4.31 µM
N#Cc1ccccc1Sc1ccccc1C(=O)NCC(c1ccco1)N1CCCC1 (stereo not drawn)	4.08 µM
COc1ccc2oc(C(=O)NCC(c3ccco3)N(C)C)c(C)c2c1 (stereo not drawn)	5.19 µM
O=c1cc(OCc2ccccc2)cc[nH]1	0.0161 µM
CCOC(=O)N1CCN(C(=O)Nc2ccc(NC(=O)N3CCN(C(=O)OCC)CC3)cc2)CC1	inactive
CN(CCc1ccccc1)C(=O)c1ccc(NC(=O)Cc2ccc(NC(=O)C3CCN(C(=O)c4ccccc4)CC3)cc2)cc1	8.52 µM
CC(=O)Nc1ccc(NC(=O)C2CCN(C(=O)c3cccs3)CC2)cc1	2.17 µM
CCOC(=O)N1CCC(NC(=O)CCc2nc(C3=CCN(C)CC3)no2)CC1	9.41 µM
O=C(Cc1ccc(NC(=O)C2CCN(C(=O)c3ccccc3)CC2)cc1)Nc1ccc(C(=O)N2CCOCC2)cc1	inactive
COc1ccc(CCNc2cc(=O)[nH]c(N)n2)cc1	4.01 µM
O=C(Cc1ccc(NC(=O)C2CCN(C(=O)C3CCCC3)CC2)cc1)Nc1ccc(C(=O)N2CCOCC2)cc1	4.37 µM
COc1cccc(CSc2nnc(CSc3nc4nc(C)cc(C)n4n3)s2)c1	9.57 µM
CSc1ccccc1OCc1cc(C(=O)N2CCNC(=O)C2)no1	5.94 µM
CN(CCc1ccccc1)C(=O)c1ccc(NC(=O)Cc2ccc(NC(=O)C3CCN(C(=O)C4CCCC4)CC3)cc2)cc1	5.22 µM
Cc1c(C(=O)NCC(c2ccco2)N(C)C)oc2c(Cl)cccc12 (stereo not drawn)	4.68 µM
CN(C(=O)c1ccc(NC(=O)Cc2ccc(NC(=O)C3CCN(C(=O)c4ccccc4)CC3)cc2)cc1)C1CC1	2.53 µM
O=C(Cc1ccc(NC(=O)C2CCN(C(=O)C3CCCCC3)CC2)cc1)Nc1ccc(C(=O)N2CCOCC2)cc1	inactive
